Assay results reported in patent publication EP2087894B1, “FORMULATIONS COMPRISING PICEID ABLE TO PREVENT AND INHIBIT LIPID PEROXIDATION” (Glures S.R.L., priority 2008, dated 2009).

Tests used:
[1] = Spin labelling (EPR) with n-SASL to find the position in the membrane; assay type: physicochemical; details: for location of the molecule in the bilayer: EPR spectra of n-SASL (positions 5, 7, 10, 12, 16) in DPPC liposomes; for position of the reactive hydroxyl group in the bilayer: EPR, DPPC liposomes
Experimental: (§1) As the antioxidant efficacy of both products is related to their partitioning between the water and lipid phase and to their position in the membrane bilayer, an investigation was carried out on the interactions of resveratrol and piceid in multilamellar liposomes of saturated L-alpha-phosphatidylcholine (PC) of various chain lengths (dimyristoyl, DMPC; dipalmitoyl, DPPC; distearoyl, DSPC) to determine: a) partition coefficients of the stilbenes between liposomes and water; b) modification of lipid bilayer organization; c) their position in the membrane using differential calorimetric analysis (DSC) and spin labelling (EPR).

[2] = Differential calorimetric analysis (DSC) of the gel-to-fluid transition of liposomes; assay type: physicochemical; details: DMPC, DPPC, DSPC multilamellar liposomes at increasing stilbene concentrations
Experimental: as §1

[3] = Partition coefficients of the stilbenes between liposomes and water; assay type: physicochemical; details: for partitioning between water and lipid phase: liposomes / water
Experimental: as §1

[4] = Inhibition of linoleic acid peroxidation, followed by oxygen consumption after thermal initiation by ABIP; assay type: biochemical; details: 37 °C; for decrease in oxygen consumption (inhibition of lipid peroxidation): radical reaction thermally initiated by ABIP, after addition of antioxidant
Experimental: The effect of the antioxidants on lipid peroxidation was verified by measuring the quantity of oxygen consumed at 37 °C as a consequence of the radical reaction thermally initiated by ABIP.

[5] = Reaction with free radicals and radical initiators before they activate lipid peroxidation; assay type: biochemical
From the text: (§2) With DHHP, the radical neutralizing activity was instead followed spectrophotometrically by measuring the initial rate (Vo) of the disappearance of its characteristic band at 515 nm. […] It was also required to verify whether the two products examined are able to react with the free radical initiators before the latter activate lipid peroxidation in the membrane.

[6] = Free radical neutralization followed spectrophotometrically (disappearance of the band at 515 nm); assay type: biochemical; details: radical neutralizing activity, spectrophotometric
From the text: as §2

SMILES: Oc1ccc(C=Cc2cc(O)cc(O)c2)cc1 [resveratrol]
- location of the molecule in the bilayer [1]: located in the hydrophobic region of the bilayer
- position of the reactive hydroxyl group in the bilayer [1]: very close to the two double bonds of the polyunsaturated fatty acids (PUFA)
- DSC profiles of the gel-to-fluid state transition [2]: broadened and shifted towards lower temperatures
- partitioning between water and lipid phase [3]: sufficiently lipophilic to partition themselves almost exclusively in the lipid phase

SMILES: Cc1cc(C(C)(C)C)c(O)c(C(C)(C)C)c1 [BHT, 2,6-di-tert-butyl-4-methyl-phenol, reference compound]
- position of the reactive hydroxyl group in the bilayer [1]: located more deeply
- decrease in oxygen consumption (inhibition of lipid peroxidation) [4]: brief initial period of strong inhibition

SMILES: Cc1c(C)c2c(c(C)c1O)CC[C@@](C)(CCC[C@H](C)CCC[C@H](C)CCCC(C)C)O2 [vitamin E, alpha-tocopherol, reference compound]
- position of the reactive hydroxyl group in the bilayer [1]: more displaced towards the polar surface
- decrease in oxygen consumption (inhibition of lipid peroxidation) [4]: brief initial period of strong inhibition

SMILES: OC[C@H]1O[C@@H](Oc2cc(O)cc(/C=C/c3ccc(O)cc3)c2)[C@H](O)[C@@H](O)[C@@H]1O [piceid]
- location of the molecule in the bilayer [1]: located in the hydrophobic region of the bilayer although piceid is closer to the hydrophilic region
- position of the reactive hydroxyl group in the bilayer [1]: very close to the two double bonds of the polyunsaturated fatty acids (PUFA)
- reactivity with the free radicals and radical initiators under examination ([5]; in water, before initiators activate lipid peroxidation in the membrane): react with all the free radicals and radical initiators under examination
- effectiveness (quantitative evaluations) ([5]; piceid compared with resveratrol): more effective than resveratrol
- duration of the inhibitory effect on oxygen consumption ([4]; ABIP-initiated, compared with vitamin E and BHT): more prolonged effect over time
- decrease in oxygen consumption (inhibition of lipid peroxidation) [4]: steady decrease in oxygen consumption greater than that of vitamin E and BHT
- DSC profiles of the gel-to-fluid state transition [2]: broadened and shifted towards lower temperatures
- initial rate (Vo) of the disappearance of its characteristic band at 515 nm [6]: comparable to those of BHT (although lower than those of vitamin E)
- hydrophobicity from partition coefficient measurements ([3]; between liposomes and water): less hydrophobic than resveratrol
- partitioning between water and lipid phase [3]: sufficiently lipophilic to partition themselves almost exclusively in the lipid phase
